# Patent publication US6432403B1, “Antibodies to polypeptides having prenylcysteine carboxyl methlytransferase activity or inhibiting activity” (New York University, priority 1997, dated 2002)
# “Also recorded” adds a separate entry of the source.
# Tested on: GFP-Nras
# Experiment: Subcellular localization of GFP-Nras in transfected COS-1 cells (epifluorescence microscopy)
# Assay type: cell-based
# Conditions: 200 μM during the 24-hour transfection
# Protocol: FIGS. 8A-8C show the effect of a pcCMT inhibitor (AFC) on the subcellular localization of Nras. In FIG. 8A, COS-1 cells were transiently transfected with GFP-Nras and observed live at 24 hours by epifluorescence microscopy to reveal both surface membrane (arrowheads) and intense perinuclear (Golgi) fluorescence. The position of the […] is marked (N). […] Bars indicate […].
# Expression of Recombinant pcCMT: The 3.6-kb full-length HL60 pcCMT cDNA and an 852-bp cDNA fragment comprising the ORF were subcloned into the eukaryotic expression vectors pCDM8 and pcDNA3.1 (Invitrogen, Carlsbad, Calif.). Myc-tagged pcCMT was made by adding a sequence encoding the 10-amino acid epitope of c-Myc recognized by monoclonal antibody 9E10 to the C terminus of pcCMT using patch PCR and subcloning into pcDNA3.1. pcCMT tagged at the C terminus with GFP was generated by subcloning the pcCMT ORF into the expression vector pGFP-N3 (Clontech). For pcCMT enzymatic assays, COS-1 cells were grown in 10-cm dishes and transfected with pcCMT with DEAE-dextran as described (Aruffo et al, 1987). For fluorescence microscopy, exponentially growing COS-1, CHO, and NIH3T3 cells were plated the day prior to transfection at 50-60% confluence and transfected with 2 μg of DNA using LipofectAMINE (Life Technologies, Inc.), Gaithersburg, Md.) according to the manufacturer's instructions. […]
smiles,measurement,value
"CC(=O)N[C@@H](CSC/C=C(\C)CC/C=C(\C)CCC=C(C)C)C(=O)O [AFC, N-acetyl-S-trans,trans-farnesyl-L-cysteine]",Effect on membrane localization of GFP-Nras,blocked; also recorded: predominantly cytosolic localization
